Test results: US9320735B2, “Myeloid derived suppressor cell inhibiting agents” (Colorado State University Research Foundation, priority 2010, dated 2016)
Like-named read-outs stand apart in the source and are kept apart here.

How the values were obtained:
[1] = target: T1, CCR2 (Homo sapiens, UniProt P41597); details: bind or taxis not given; read-out: CCR2 antagonist potency; cited from earlier work
[2] = target: T1, CCR2; details: read-out: CCR2 IC(50) bind; cited from earlier work
[3] = test system: MCP-1-stimulated calcium influx; details: read-out: IC50, block of MCP-1-stimulated calcium influx; cited from earlier work
[4] = target: T2, CCR2 (Mus musculus, UniProt P51683); assay: IFN-γ release by spleen cells of vaccinated mice treated with RS102895 (FIG. 34); format: in vivo
T2 construct: endogenous in cells
T2 sequence (P51683 whole entry): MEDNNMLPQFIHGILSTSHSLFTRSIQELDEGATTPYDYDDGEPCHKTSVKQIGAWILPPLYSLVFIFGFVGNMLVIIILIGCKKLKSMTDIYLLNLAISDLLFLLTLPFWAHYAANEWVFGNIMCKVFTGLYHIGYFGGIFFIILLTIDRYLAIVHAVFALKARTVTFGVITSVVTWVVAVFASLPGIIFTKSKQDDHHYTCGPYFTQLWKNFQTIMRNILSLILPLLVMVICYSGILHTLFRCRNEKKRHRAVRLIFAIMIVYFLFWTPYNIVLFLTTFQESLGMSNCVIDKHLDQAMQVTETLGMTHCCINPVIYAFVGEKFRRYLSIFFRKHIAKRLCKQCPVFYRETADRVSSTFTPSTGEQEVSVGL
Protocol: FIG. 34. Effects of co-administration of RS102895 (small molecule inhibitor, Tocris BioSciences), on spleen lymphocyte production of IFN-γ from vaccinated animals (T cell response). Mice were vaccinated s.c. with standard vaccine adjuvant (CLDC) and 5 ug ovalbumin and boosted 10 days later. A first group of mice (n=4 per group) received the vaccine only (cross-hatch). A second group of mice was vaccinated and also treated 1 day before, on the same day, and 1 day after with 5 mg/kg of the CCR2 antagonist RS102895, administered i.p. (horizontal line bar). A third group of mice was vaccinated and also treated 1 day before, on the same day, and 1 day after with 5 mg/kg of the CCR2 antagonist RS102895, administered s.q. at the site of vaccination (vertical line bar). The mice were sacrificed 2 weeks after the booster vaccination and spleen cells were incubated in vitro with ovalbumin (50 ug/ml) for 72 hours. Release of […] into the supernatants was determined by ELISA.
Mice were vaccinated s.c. with standard vaccine adjuvant (CLDC) and 5 ug ovalbumin and boosted 10 days later. One group of mice (n=4 per group) received the vaccine only. A second group of mice was vaccinated and also treated 1 day before, on the same day, and 1 day after with 5 mg/kg of the CCR2 antagonist RS102895, administered i.p. A third group of mice was vaccinated and also treated 1 day before, on the same day, and 1 day after with 5 mg/kg of the CCR2 antagonist RS102895, administered s.c. at the site of vaccination. The mice were sacrificed 2 weeks after the booster vaccination and spleen cells were incubated in vitro with ovalbumin (50 ug/ml) for 72 hours and release of IFN-γ into the supernatants was determined by ELISA. […] The data from this study is presented at FIG. 34.

[5] = test system: MCP-1-stimulated chemotaxis; details: read-out: IC50, block of MCP-1-stimulated chemotaxis; cited from earlier work
[6] = test system: 5-HT1A receptor; details: cited from earlier work
[7] = target: T3, α1A receptor (Homo sapiens, UniProt P35348); details: cited from earlier work
T3 sequence (P35348 1-466): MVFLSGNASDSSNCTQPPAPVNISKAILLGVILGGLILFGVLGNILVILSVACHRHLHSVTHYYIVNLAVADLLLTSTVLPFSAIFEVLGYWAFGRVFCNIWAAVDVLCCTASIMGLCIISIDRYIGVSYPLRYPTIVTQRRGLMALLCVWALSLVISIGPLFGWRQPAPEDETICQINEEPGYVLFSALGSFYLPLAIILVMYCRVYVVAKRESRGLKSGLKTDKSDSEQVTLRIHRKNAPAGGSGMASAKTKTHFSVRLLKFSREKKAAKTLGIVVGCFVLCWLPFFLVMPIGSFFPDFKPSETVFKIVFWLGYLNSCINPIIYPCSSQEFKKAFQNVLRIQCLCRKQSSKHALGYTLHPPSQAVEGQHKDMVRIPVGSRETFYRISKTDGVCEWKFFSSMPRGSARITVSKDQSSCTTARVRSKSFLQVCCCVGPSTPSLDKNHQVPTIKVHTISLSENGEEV

[8] = target: T4, α1D receptor (Homo sapiens, UniProt P25100); details: cited from earlier work
T4 sequence (P25100 1-572): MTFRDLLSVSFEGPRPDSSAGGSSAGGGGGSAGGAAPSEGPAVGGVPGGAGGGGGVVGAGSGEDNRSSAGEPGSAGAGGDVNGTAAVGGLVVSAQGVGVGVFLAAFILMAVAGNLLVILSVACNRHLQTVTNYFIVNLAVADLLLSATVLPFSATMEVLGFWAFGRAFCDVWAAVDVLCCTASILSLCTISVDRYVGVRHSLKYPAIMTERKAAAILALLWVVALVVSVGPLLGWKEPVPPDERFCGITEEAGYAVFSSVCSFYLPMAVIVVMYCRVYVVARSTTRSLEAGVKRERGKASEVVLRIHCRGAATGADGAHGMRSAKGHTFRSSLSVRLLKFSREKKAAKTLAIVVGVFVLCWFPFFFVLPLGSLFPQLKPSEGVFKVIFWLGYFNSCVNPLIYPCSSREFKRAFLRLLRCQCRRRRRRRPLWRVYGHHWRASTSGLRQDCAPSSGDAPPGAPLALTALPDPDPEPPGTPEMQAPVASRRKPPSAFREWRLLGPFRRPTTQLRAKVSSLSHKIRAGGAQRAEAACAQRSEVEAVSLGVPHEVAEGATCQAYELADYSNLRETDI

[9] = target: T5, human recombinant CCR1 (Homo sapiens, UniProt P32246); details: read-out: IC50 for inhibition of human recombinant CCR1 receptor; cited from earlier work
T5 sequence (P32246 1-355): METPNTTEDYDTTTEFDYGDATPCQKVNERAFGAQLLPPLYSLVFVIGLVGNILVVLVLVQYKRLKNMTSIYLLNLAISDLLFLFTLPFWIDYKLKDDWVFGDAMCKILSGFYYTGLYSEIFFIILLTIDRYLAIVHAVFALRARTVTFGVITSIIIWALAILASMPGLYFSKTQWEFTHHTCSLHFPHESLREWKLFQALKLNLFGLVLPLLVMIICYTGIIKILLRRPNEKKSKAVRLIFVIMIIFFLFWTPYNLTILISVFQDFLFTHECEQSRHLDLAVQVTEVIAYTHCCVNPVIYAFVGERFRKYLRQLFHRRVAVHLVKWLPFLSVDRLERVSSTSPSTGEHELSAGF

[10] = target: T6, human recombinant CCR2b (Homo sapiens, UniProt P41597); details: read-out: IC50 for inhibition of human recombinant CCR2b receptor; cited from earlier work
T6 sequence (P41597 1-360 isoform P41597-2): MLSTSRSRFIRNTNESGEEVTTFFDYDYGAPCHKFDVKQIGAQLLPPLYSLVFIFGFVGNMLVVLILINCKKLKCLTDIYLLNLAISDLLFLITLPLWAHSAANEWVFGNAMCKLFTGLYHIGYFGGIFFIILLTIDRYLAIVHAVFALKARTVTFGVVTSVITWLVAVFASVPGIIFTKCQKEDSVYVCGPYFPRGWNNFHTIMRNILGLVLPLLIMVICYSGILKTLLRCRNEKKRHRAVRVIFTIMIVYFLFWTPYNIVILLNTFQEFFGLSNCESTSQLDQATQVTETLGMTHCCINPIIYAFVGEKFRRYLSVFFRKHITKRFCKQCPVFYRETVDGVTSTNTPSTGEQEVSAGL

[11] = target: T2, CCR2; assay: Antibody titers to ovalbumin after CLDC/ovalbumin vaccination with RS102895 (FIG. 33); format: in vivo, mice; details: 5 mg/kg 1 day before, same day, 1 day after
Protocol: FIG. 33. Effects of co-administration of RS102895 (small molecule inhibitor, Tocris Bioscience), on antibody responses following vaccination via two different modes of administration i.p. (intraperitoneally) or SQ (subcutaneous). Mice were vaccinated SQ with standard vaccine adjuvant (CLDC) and 5 ug ovalbumin, and boosted 10 days later. The first group of mice (n=4 per group) received the vaccine only (cross-hatch bar). A second group of mice was vaccinated and also treated 1 day before, on the same day, and 1 day after with 5 mg/kg of the CCR2 antagonist RS102895 (horizontal line bar), administered i.p. A third group of mice was vaccinated and also treated 1 day before, on the same day, and 1 day after with 5 mg/kg of the CCR2 antagonist RS102895, administered s.c. at the site of vaccination (vertical line bar). Antibody titers to ovalbumin were determined 2 weeks after the boost and plotted as endpoint dilution titers for all animals in all groups. […]
Mice were vaccinated subcutaneous (s.c.) with standard vaccine adjuvant (CLDC) (Cationic liposome-DNA complexes) and 5 ug ovalbumin and boosted 10 days later. […] Antibody titers to ova were determined 2 weeks after the boost and plotted as endpoint dilution titers. […]

T1 sequence (P41597 whole entry, species assumed): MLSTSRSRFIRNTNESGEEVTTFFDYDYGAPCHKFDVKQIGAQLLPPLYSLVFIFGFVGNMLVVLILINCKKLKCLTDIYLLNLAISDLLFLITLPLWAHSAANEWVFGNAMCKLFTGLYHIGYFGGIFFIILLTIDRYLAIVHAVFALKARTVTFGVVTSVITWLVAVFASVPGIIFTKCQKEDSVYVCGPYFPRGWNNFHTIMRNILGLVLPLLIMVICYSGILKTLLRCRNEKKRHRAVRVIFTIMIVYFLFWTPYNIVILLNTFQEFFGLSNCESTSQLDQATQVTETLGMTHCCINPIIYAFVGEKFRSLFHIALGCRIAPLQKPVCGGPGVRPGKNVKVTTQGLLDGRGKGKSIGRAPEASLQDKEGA

O=C(CNC(=O)c1ccccc1)NC1CCN(Cc2ccccc2)C1 (stereo not drawn) [3-Aminopyrrolidines]
IC50 [1]: 0.003 µM

CN(CCN1CCCCC1)c1ccc(-c2nc3cc(Sc4ccc(Cl)c(Cl)c4)ccc3[nH]2)cc1 [Benzimidazoles]
IC50 [2]: 0.2 to 0.3 µM

Cl.O=C1Nc2ccccc2C2(CCN(CCc3ccc(C(F)(F)F)cc3)CC2)O1 [RS102895]
IC50 [3]: 0.032 µM
IFN-γ production by spleen cells ([4]; 5 mg/kg SQ at site of vaccination, ovalbumin 50 ug/ml 72 hours, without CCR2 antagonist about 450): about 1,400 pg/ml
IFN-γ production by spleen lymphocytes ([4]; 5 mg/kg i.p., ovalbumin 50 ug/ml 72 hours, without CCR2 antagonist about 450): about 2,300 pg/ml
IFN-γ production vs vaccinated without RS102895 ([4]; 5 mg/kg, either route): significantly higher amounts of IFN-γ
IC50 [5]: 1.7 µM
inhibition of 5-HT1A receptor [6]: inhibits
inhibition of α1A receptor [7]: inhibits
inhibition of α1D receptor [8]: inhibits
IC50 [9]: 17.8 µM
IC50 [10]: 0.36 µM
antibody titers to ova relative to vaccine alone ([11]; either route): ≥ 2 ×
antibody titers to ovalbumin vs vaccine alone ([11]; i.p. or s.c., 2 weeks after boost): significantly higher antibody titers

O=C(/C=C/c1ccc(Cl)c(Cl)c1)NC1CCC(CN2C3CCC2CC(c2c[nH]c4ccc(O)cc24)C3)CC1 (stereo not drawn) [SB-380732]
IC50 [2]: 0.05 µM
